Data taken from US20040049072A1, “RXR modulators with improved pharmacologic profile” (priority 1999, published 2004).
Entries after “also recorded” stand apart in the source; their conditions may differ.

biological target: T1, RXRα homodimer (RXR:RXR) (Homo sapiens, UniProt P19793); assay: RXR homodimer co-transfection assay in CV-1 cells; type: cell-based; settings: Table 3 c2; mean of n > 3
T1 sequence (P19793 1-462): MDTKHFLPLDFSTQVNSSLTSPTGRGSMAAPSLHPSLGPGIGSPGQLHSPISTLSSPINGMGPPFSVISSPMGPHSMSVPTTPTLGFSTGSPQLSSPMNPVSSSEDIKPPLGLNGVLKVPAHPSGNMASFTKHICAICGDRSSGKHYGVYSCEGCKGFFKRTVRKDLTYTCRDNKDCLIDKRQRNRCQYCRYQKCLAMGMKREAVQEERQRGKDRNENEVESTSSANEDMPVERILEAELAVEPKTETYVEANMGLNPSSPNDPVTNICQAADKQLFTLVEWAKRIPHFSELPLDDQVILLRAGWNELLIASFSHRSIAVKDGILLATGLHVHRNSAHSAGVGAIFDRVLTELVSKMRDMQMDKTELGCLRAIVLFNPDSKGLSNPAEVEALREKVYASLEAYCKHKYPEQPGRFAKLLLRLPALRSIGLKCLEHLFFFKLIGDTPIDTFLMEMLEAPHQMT
From the text: In the co-transfection assay, cloned cDNA for one or more IRs (e.g., human RARα, RXRα, or PPARγ), alone or in combination (i.e. for heterodimer assays) under the control of a constitutive promoter (e.g., the SV 40, RSV or CMV promoter) is introduced by transfection (a procedure to introduce exogenous genes into cells) into a background cell substantially devoid of endogenous IRs. These introduced gene(s) direct the recipient cells to make the IR protein(s) of interest. A further gene is also introduced (co-transfected) into the same cells in conjunction with the IR gene(s). This further gene, comprising the cDNA for a reporter protein, such as firefly luciferase (LUC), controlled by an appropriate hormone responsive promoter containing a hormone response element (HRE). This reporter plasmid functions as a reporter for the transcriptional-modulating activity of the target IR(s). Thus, the reporter acts as a surrogate for the products (mRNA then protein) normally expressed by a gene under control of the target receptor(s) and their native hormone(s).
Exposing the transfected cells to an agonist ligand compound increases reporter activity in the transfected cells. This activity can be conveniently measured, e.g., by increasing luciferase production and enzymatic activity, which reflects compound-dependent, IR-mediated increases in reporter transcription. […] Increasing concentrations of an antagonist will decrease the reporter signal (e.g., luciferase production). The co-transfection assay is therefore useful to detect both agonists and antagonists of specific IRs. Furthermore, it determines not only whether a compound interacts with a particular IR, but whether this interaction mimics (agonizes) or blocks (antagonizes) the effects of native or synthetic regulatory molecules on target gene expression, as well as the specificity and strength of this interaction.
The receptor expression plasmid was cotransfected along with a reporter plasmid at 50 ng/well, the internal control plasmid pRS-β-Gal at 50 ng/well and filler DNA, pGEM, at 90 ng/well.
Six hours after transfection, media was removed and the cells were washed with phosphate-buffered saline (PBS). Media containing compounds of the present invention in concentrations ranging from 10^−10 to 10^−5 M were added to the cells. […] Retinoids were dissolved in dimethylsulfoxide for use in the transcriptional activation assays. Two to three replicates were used for each sample. Transfections and subsequent procedures were performed on a Biomek 1000 automated workstation.
After 40 hours, the cells were washed with PBS, lysed with a detergent-based buffer and assayed for LUC and β-Gal activities using a luminometer or spectrophotometer, respectively. For each replicate, the normalized response (NR) was calculated as: […]
The mean and standard error of the mean (SEM) of the NR were calculated. Data were plotted as the response of the compound compared to the reference compounds over the range of the dose-response curve. […] Antagonist activity was determined by testing the amount of LUC expression in the presence of the RXR agonists described above at the EC50 concentration for such known compounds. […] In addition, the efficacy of antagonists was determined as a function (%) of maximal inhibition.

| SMILES | RXRα Homodimer Cotransfection Assay Agonist Efficacy (%) |
| --- | --- |
| COc1c(/C(C)=C/C=C/C(C)=C/C(=O)O)cc(C(C)(C)C)cc1C(C)(C)C [Compound L1] | 62% |
| CCOc1c(/C(C)=C/C=C/C(C)=C/C(=O)O)cc(C(C)(C)C)cc1C(C)(C)C [Compound L2] | 11% |

same assay, conditions: Table 3 c4; in presence of 3.2×10^−8 M LGD1069

| SMILES | RXRα Homodimer Cotransfection Assay Agonist Efficacy (%) |
| --- | --- |
| COc1c(/C(C)=C/C=C/C(C)=C/C(=O)O)cc(C(C)(C)C)cc1C(C)(C)C [Compound L1] | 7% |
| CCOc1c(/C(C)=C/C=C/C(C)=C/C(=O)O)cc(C(C)(C)C)cc1C(C)(C)C [Compound L2] | 62% |

same assay, conditions: cotransfection assay

| SMILES | activity on the RXR:RXR homodimer |
| --- | --- |
| COc1c(/C(C)=C/C=C/C(C)=C/C(=O)O)cc(C(C)(C)C)cc1C(C)(C)C [Compound L1] | full RXR homodimer agonists; also recorded: agonist activity similar in efficacy and potency to the known RXR agonist, LG100268 |
| CCOc1c(/C(C)=C/C=C/C(C)=C/C(=O)O)cc(C(C)(C)C)cc1C(C)(C)C [Compound L2] | partial agonist |

same assay, conditions: in presence of LGD1069; not calculated if efficacy <10%; read-out: RXRα Homodimer Cotransfection Assay Antagonist IC50

| SMILES | IC50 |
| --- | --- |
| CCOc1c(/C(C)=C/C=C/C(C)=C/C(=O)O)cc(C(C)(C)C)cc1C(C)(C)C [Compound L2] | 9 nM |

same assay, conditions: maximal repression (100%) in presence of 32 nM LGD1069

| SMILES | RXR:RXR CV-1 (%) Antag. |
| --- | --- |
| COc1c(/C(C)=C/C=C/C(C)=C/C(=O)O)cc(C(C)(C)C)cc1C(C)(C)C [Compound L1] | 7% |
| CCOc1c(/C(C)=C/C=C/C(C)=C/C(=O)O)cc(C(C)(C)C)cc1C(C)(C)C [Compound L2] | 62% |

same assay, conditions: maximal response relative to ATRA

| SMILES | RXR:RXR CV-1 (%) Ag. |
| --- | --- |
| COc1c(/C(C)=C/C=C/C(C)=C/C(=O)O)cc(C(C)(C)C)cc1C(C)(C)C [Compound L1] | 62% |
| CCOc1c(/C(C)=C/C=C/C(C)=C/C(=O)O)cc(C(C)(C)C)cc1C(C)(C)C [Compound L2] | 11% |

same assay, conditions: not calculated if efficacy <10%; read-out: RXRα Homodimer Cotransfection Assay Agonist EC50

| SMILES | EC50 |
| --- | --- |
| COc1c(/C(C)=C/C=C/C(C)=C/C(=O)O)cc(C(C)(C)C)cc1C(C)(C)C [Compound L1] | 33 nM |
| CCOc1c(/C(C)=C/C=C/C(C)=C/C(=O)O)cc(C(C)(C)C)cc1C(C)(C)C [Compound L2] | 14 nM |

test system: db/db mouse; assay: db/db mouse study (rodent model of Type II diabetes); settings: plasma glucose, % correction relative to lean values, day 14; 100 mg/kg daily oral gavage

| SMILES | db/db mouse Glu. (D 14) |
| --- | --- |
| COc1c(/C(C)=C/C=C/C(C)=C/C(=O)O)cc(C(C)(C)C)cc1C(C)(C)C [Compound L1] | 96% |
| CCOc1c(/C(C)=C/C=C/C(C)=C/C(=O)O)cc(C(C)(C)C)cc1C(C)(C)C [Compound L2] | 91% |

same assay, conditions: plasma triglycerides, % correction relative to lean values, day 3; NC = no change

| SMILES | db/db mouse Trigs. (D3) |
| --- | --- |
| COc1c(/C(C)=C/C=C/C(C)=C/C(=O)O)cc(C(C)(C)C)cc1C(C)(C)C [Compound L1] | 300% |

same assay, conditions: plasma triglycerides, % correction relative to lean values, day 14; NC = no change

| SMILES | db/db mouse Trigs. (D 14) |
| --- | --- |
| COc1c(/C(C)=C/C=C/C(C)=C/C(=O)O)cc(C(C)(C)C)cc1C(C)(C)C [Compound L1] | 54% |
| CCOc1c(/C(C)=C/C=C/C(C)=C/C(=O)O)cc(C(C)(C)C)cc1C(C)(C)C [Compound L2] | 116% |

same assay, conditions: rodent models of Type II Diabetes

| SMILES | effect on the thyroid hormone axis | effect on triglycerides | insulin sensitizing activity / effect on glucose |
| --- | --- | --- | --- |
| COc1c(/C(C)=C/C=C/C(C)=C/C(=O)O)cc(C(C)(C)C)cc1C(C)(C)C [Compound L1] | suppress the thyroid hormone axis | raise triglycerides | efficacious insulin sensitizers |
| CCOc1c(/C(C)=C/C=C/C(C)=C/C(=O)O)cc(C(C)(C)C)cc1C(C)(C)C [Compound L2] | suppresses thyroid hormone axis |  |  |

same assay, conditions: total T4 as % of obese control values, day 3; NC = no change

| SMILES | db/db mouse T4 (D 3) |
| --- | --- |
| CCOc1c(/C(C)=C/C=C/C(C)=C/C(=O)O)cc(C(C)(C)C)cc1C(C)(C)C [Compound L2] | 45% |

biological target: T2, RXRα:RAR heterodimer (Homo sapiens, UniProt P19793); assay: RXR:RAR heterodimer co-transfection assay in CV-1 cells; type: cell-based; settings: CV-1, read-out: RXR:RAR CV-1 (%) Ag.
T2 construct: expressed in transfected cells; host or cells: CV-1 cells
T2 sequence (P19793 1-462): T1 sequence (P19793 1-462)
Method: For determination of agonist activity in the context of the RXR:RAR heterodimer or the RXR:PPARγ heterodimer, media containing compounds of the present invention in concentrations ranging from 10^−10 to 10^−5 M were added to the cells.
Compounds of the present invention were also tested for the ability to synergize with a PPARγ agonist in the context of an RXR heterodimer. […] Efficacy of the compounds of the present invention in the agonist and synergy assays was calculated as the maximum response obtained over the range of the dose response curve relative to the maximum response obtained by the reference agonist. Antagonist efficacy was determined as a function (%) of maximal inhibition.
However, when RAR is occupied, typical RXR agonists activate the heterodimer. […] To examine the effects of the compounds of the present invention on the transcriptional properties of the RXR:RAR heterodimer, a heterodimer cotransfection assay as described above was employed.

| SMILES | Emax |
| --- | --- |
| COc1c(/C(C)=C/C=C/C(C)=C/C(=O)O)cc(C(C)(C)C)cc1C(C)(C)C [Compound L1] | 21% |
| CCOc1c(/C(C)=C/C=C/C(C)=C/C(=O)O)cc(C(C)(C)C)cc1C(C)(C)C [Compound L2] | 6% |

same assay, conditions: CV-1, read-out: RXRα:RAR Heterodimer Cotransfection Assay Agonist Efficacy (%)

| SMILES | Emax |
| --- | --- |
| COc1c(/C(C)=C/C=C/C(C)=C/C(=O)O)cc(C(C)(C)C)cc1C(C)(C)C [Compound L1] | 21% |
| CCOc1c(/C(C)=C/C=C/C(C)=C/C(=O)O)cc(C(C)(C)C)cc1C(C)(C)C [Compound L2] | 6% |

same assay, conditions: compound alone

| SMILES | agonist activity on the RXR:RAR heterodimer |
| --- | --- |
| COc1c(/C(C)=C/C=C/C(C)=C/C(=O)O)cc(C(C)(C)C)cc1C(C)(C)C [Compound L1] | weak agonist activity alone |
| CCOc1c(/C(C)=C/C=C/C(C)=C/C(=O)O)cc(C(C)(C)C)cc1C(C)(C)C [Compound L2] | not active in the RXR:RAR assay |

same assay, conditions: maximal repression (100%) in presence of 10 nM TTNPB

| SMILES | RXR:RAR CV-1 (%) Antag. |
| --- | --- |
| COc1c(/C(C)=C/C=C/C(C)=C/C(=O)O)cc(C(C)(C)C)cc1C(C)(C)C [Compound L1] | 19% |
| CCOc1c(/C(C)=C/C=C/C(C)=C/C(=O)O)cc(C(C)(C)C)cc1C(C)(C)C [Compound L2] | 49% |

same assay, conditions: relative to maximal repression (100%) in presence of 10 nM TTNPB

| SMILES | RXRα:RAR Heterodimer Cotransfection Assay Antagonist Efficacy (%) |
| --- | --- |
| COc1c(/C(C)=C/C=C/C(C)=C/C(=O)O)cc(C(C)(C)C)cc1C(C)(C)C [Compound L1] | 19% |
| CCOc1c(/C(C)=C/C=C/C(C)=C/C(=O)O)cc(C(C)(C)C)cc1C(C)(C)C [Compound L2] | 49% |

biological target: T3, RXRα (Homo sapiens, UniProt P19793); assay: RXRα binding (competition with tritiated LGD1069); settings: Table 3; mean of n > 3; read-out: RXRα Binding Ki
T3 sequence (P19793 1-462): T1 sequence (P19793 1-462)
Method: Non-specific binding was defined as that binding remaining in the presence of 500 nM of the appropriate unlabelled compound. At the end of the incubation period, bound ligand was separated from free. The amount of bound tritiated retinoid was determined by liquid scintillation counting of an aliquot (700 μL) of the supernatant fluid or the hydroxylapatite pellet.
After correcting for non-specific binding, IC50 values were determined. […] The IC50 value was determined graphically from a log-logit plot of the data. The Ki values were determined by application of the Cheng-Prussof equation to the IC50 values, the labeled ligand concentration and the Kd of the labeled ligand.

| SMILES | Ki |
| --- | --- |
| COc1c(/C(C)=C/C=C/C(C)=C/C(=O)O)cc(C(C)(C)C)cc1C(C)(C)C [Compound L1] | 1.1 nM |
| CCOc1c(/C(C)=C/C=C/C(C)=C/C(=O)O)cc(C(C)(C)C)cc1C(C)(C)C [Compound L2] | 13 nM |

same assay, conditions: from IC50 by Cheng-Prussof equation, tritiated LGD1069; read-out: Bind RXRα Ki

| SMILES | Ki |
| --- | --- |
| COc1c(/C(C)=C/C=C/C(C)=C/C(=O)O)cc(C(C)(C)C)cc1C(C)(C)C [Compound L1] | 1.1 nM |
| CCOc1c(/C(C)=C/C=C/C(C)=C/C(=O)O)cc(C(C)(C)C)cc1C(C)(C)C [Compound L2] | 13 nM |
